Our source for the IC50 values is ChEMBL document CHEMBL1129432, “Structure-activity relationships of a series of novel (piperazinylbutyl)thiazolidinone antipsychotic agents related to 3-[4-[4-(6-fluorobenzo[b]thien-3-yl)-1-piperazinyl]butyl]-2,5,5- trimethyl-4-thiazolidinone maleate” (J Med Chem, 1996).

A value given as a limit tells only on which side of the number the result lay.

The target in assay [1] is T1, 5-hydroxytryptamine receptor 1A (Rattus norvegicus, UniProt P19327).
T1 sequence (P19327 whole entry): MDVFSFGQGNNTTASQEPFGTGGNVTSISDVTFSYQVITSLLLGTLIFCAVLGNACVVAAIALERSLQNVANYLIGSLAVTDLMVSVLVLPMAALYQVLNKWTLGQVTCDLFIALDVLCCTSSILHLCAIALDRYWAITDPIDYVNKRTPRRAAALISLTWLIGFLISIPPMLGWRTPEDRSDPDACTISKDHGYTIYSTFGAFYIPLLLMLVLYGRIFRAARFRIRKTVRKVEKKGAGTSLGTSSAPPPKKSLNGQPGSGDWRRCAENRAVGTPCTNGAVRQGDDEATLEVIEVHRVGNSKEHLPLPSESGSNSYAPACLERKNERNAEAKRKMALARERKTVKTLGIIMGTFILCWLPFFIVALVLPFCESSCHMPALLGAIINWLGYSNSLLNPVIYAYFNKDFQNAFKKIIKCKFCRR
Kind of assay: Binding affinity towards serotonin 5-HT1A receptor was determined in rat hippocampus using [3H]8-OH-DPAT as ligand. Format: tissue-based.

The target in a further assay is D(2) dopamine receptor (Rattus norvegicus, UniProt P61169). Briefly: Binding affinity towards Dopamine receptor D2 was determined in rat striatum using [3H]- spiperone as radioligand. It counts as tissue-based.
The target of assay [2] is Serotonin 2 (5-HT2) receptor (Rattus norvegicus, UniProt P30994+P08909+P14842). Kind of assay: Binding affinity towards serotonin 5-HT2 receptor was determined in rat cortex using [3H]spiperone as ligand.

The IC50 is the concentration that inhibits the measured activity by half.

Chain of D(2) dopamine receptor (P61169 whole entry): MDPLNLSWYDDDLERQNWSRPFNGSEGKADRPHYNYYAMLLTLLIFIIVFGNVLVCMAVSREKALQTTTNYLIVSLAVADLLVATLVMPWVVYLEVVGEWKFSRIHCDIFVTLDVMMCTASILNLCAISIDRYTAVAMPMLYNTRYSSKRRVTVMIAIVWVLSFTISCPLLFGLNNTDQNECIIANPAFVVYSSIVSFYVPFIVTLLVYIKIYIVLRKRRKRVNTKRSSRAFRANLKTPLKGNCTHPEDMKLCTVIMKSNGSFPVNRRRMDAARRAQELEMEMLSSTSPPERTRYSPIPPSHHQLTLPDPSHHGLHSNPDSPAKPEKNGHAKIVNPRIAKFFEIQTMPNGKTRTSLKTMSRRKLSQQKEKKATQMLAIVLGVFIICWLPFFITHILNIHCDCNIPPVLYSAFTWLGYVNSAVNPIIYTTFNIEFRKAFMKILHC

On to `O=C1CSCN1CCCCN1CCN(c2cccc(Cl)c2)CC1`, for which the IC50 was found to be 57 nM in assay [1] and 2210 nM on D(2) dopamine receptor.
With `CC1(C)SCN(CCCCN2CCN(c3ccc4ccccc4n3)CC2)C1=O`, the IC50 in assay [1] was determined as 153 nM; in assay [2] it was 446 nM.
For the compound `CC1(C)SCC(=O)N1CCCCN1CCN(c2cccc(Cl)c2)CC1`, at D(2) dopamine receptor, the IC50 was 835 nM. In other words, the sub-micromolar range.
With `Cc1ccccc1N1CCN(CCCCN2CSCC2=O)CC1`, the IC50 in assay [1] came out at 61 nM; at D(2) dopamine receptor it was 1610 nM.
The like results for `Cc1cccc(N2CCN(CCCCN3CSCC3=O)CC2)c1` were, in that order, 140 nM and 12600 nM.
As to `CC1SC(C)(C)C(=O)N1CCCCN1CCN(c2csc3cc(Cl)ccc23)CC1` (configuration not stated), the IC50 in assay [1] is 855 nM; in assay [2], 1540 nM; at D(2) dopamine receptor, 4730 nM.
The like results for `CC1(C)SCC(=O)N1CCCCN1CCN(c2nsc3ccccc23)CC1` were, in that order, 7 nM, 12 nM and 193 nM.
The like results for `CC1(C)SCN(CCCCN2CCN(c3cc4ccccc4cn3)CC2)C1=O` were, in that order, 629 nM, 85 nM and 8430 nM.
With `O=C1CSCN1CCCCN1CCN(c2cccc(C(F)(F)F)c2)CC1`, the IC50 was found to be 34 nM in assay [1] and 1960 nM at D(2) dopamine receptor.
In the same order, the values of `O=C1CSCN1CCCCN1CCN(c2ccccc2Cl)CC1` are 23 nM and 652 nM.
Take `COc1ccccc1N1CCN(CCCCN2C(=O)C(C)(C)SC2(C)C)CC1`: in assay [1], the IC50 is 18 nM. This counts as double-digit nanomolar.
Regarding `O=C1CSCN1CCCCN1CCN(c2ccc3ccccc3n2)CC1`, the results for the IC50 in assay [1] and in assay [2] were 332 nM and 641 nM, respectively.
On to `COc1ccccc1N1CCN(CCCCN2CSC3(CCCC3)C2=O)CC1`, for which the IC50 in assay [1] was 2 nM; in assay [2] it was 492 nM; at D(2) dopamine receptor it was 150 nM.
`O=C1N(CCCCN2CCN(C3=NS(=O)(=O)c4ccccc43)CC2)CSC12CCCC2` yielded an IC50 in assay [2] greater than 20000 nM.
In the case of `CC1SC(C)(C)C(=O)N1CCCCN1CCN(c2cn(-c3ccccc3)c3cc(F)ccc23)CC1` (configuration not stated), the values for the IC50 (in assay [1]; in assay [2]; on D(2) dopamine receptor) were 8080 nM, 119 nM and 1090 nM, respectively.
With `COc1ccccc1N1CCN(CCCCN2C(=O)CSC2(C)C)CC1`, the IC50 in assay [1] is 10 nM; on D(2) dopamine receptor it was 514 nM.
In the same order, the values of `O=C1CSCN1CCCCN1CCN(c2ccc(Cl)cc2)CC1` are 1280 nM and 8760 nM.
With `Cc1cccc(N2CCN(CCCCN3CSCC3=O)CC2)c1C`, the IC50 in assay [1] is 83 nM; on D(2) dopamine receptor, 778 nM.
Take `Cc1cccc(N2CCN(CCCCN3C(=O)C(C)(C)SC3(C)C)CC2)c1`: the IC50 was found to be 38 nM in assay [1], 439 nM in assay [2] and 1840 nM on D(2) dopamine receptor.
`O=C1CSCN1CCCCN1CCN(c2ccc(F)cc2)CC1` gave an IC50 in assay [1] of 140 nM.
In the case of `CC1SC(C)(C)C(=O)N1CCCCN1CCN(c2nsc3cc(Cl)ccc23)CC1` (configuration not stated), in assay [2], the IC50 was found to be 271 nM.
As for `CC1(C)SCC(=O)N1CCCCN1CCN(c2cccc(C(F)(F)F)c2)CC1`, the IC50 at D(2) dopamine receptor amounted to 1130 nM.
As for `O=C1CSCN1CCCCN1CCN(c2nc3ccccc3s2)CC1`, the IC50 in assay [1] amounted to 367 nM; in assay [2], 8420 nM.
As to `COc1ccccc1N1CCN(CCCCN2CSC(C)C2=O)CC1` (configuration not stated), the IC50 in assay [1] came to 220 nM.
In the case of `COc1cccc(N2CCN(CCCCN3CSCC3=O)CC2)c1`, the concentration for half-maximal inhibition (IC50) was 139 nM in assay [1] and 7490 nM at D(2) dopamine receptor.
As to `CC1SCC(=O)N1CCCCN1CCN(c2cccc(Cl)c2)CC1` (configuration not stated), the IC50 in assay [1] was found to be 10 nM; at D(2) dopamine receptor it was 2230 nM.
In assay [1], `Cc1cccc(N2CCN(CCCCN3CSC(C)(C)C3=O)CC2)c1` displayed an IC50 of 12 nM. This lies in the double-digit nanomolar range.
For `Cc1cccc(N2CCN(CCCCN3C(=O)CSC3(C)C)CC2)c1`, the IC50 in assay [1] worked out at 26 nM; on D(2) dopamine receptor, 3750 nM.
Regarding `CC1(C)SCN(CCCCN2CCN(c3nc4ccccc4s3)CC2)C1=O`, the IC50 in assay [1] stood at 1370 nM; in assay [2], 2310 nM.
For `Cc1cc2c(s1)Nc1ccccc1N=C2N1CCN(C)CC1` [OLANZAPINE], the IC50 in assay [2] amounted to 47 nM.
